# Test results taken from patent US20240025862A1, “SUBSTITUTED N-PHENYLURACILS AND SALTS THEREOF, AND USE THEREOF AS HERBICIDAL ACTIVE SUBSTANCES” (Bayer Aktiengesellschaft, priority 2020, published 2024).
# How the values were obtained:
# Format in all cases: in vivo
# Oryza sativa (ORYSA) = test: Post-emergence crop plant compatibility, greenhouse pot test (also comparative test C); settings: 1.25 g/ha, vs untreated controls
# Outline: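 Visual damage versus untreated plants (0% = like control, 100% = plants died) was scored about 3 weeks after a post-emergence spray in greenhouse pots. Treatment: one-leaf stage, WP or EC in water at 600 l/ha with 0.5% additive; a/b/c mark different dosages on the same crop.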
# [1] = system: Echinochloa crus-galli (ECHCG); test: Post-emergence herbicidal action, greenhouse pot test (also comparative test C); settings: for pest or weed control at 5 g/ha / pest or weed control at 20 g/ha: Echinochloa crus-galli, 504 h, read-out: Post-emergence action against ECHCG in %; for pest or weed control at 5 g/ha: dosage 5 g/ha; for pest or weed control at 20 g/ha: dosage 20 g/ha
# Outline: (§1)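 Greenhouse pot plants in sandy loam were sprayed post-emergence at the one-leaf stage (2–3 weeks after sowing) with WP or EC formulations plus 0.5% additive at 600 l/ha water. Activity was rated visually after about 3 weeks versus untreated controls (100% = dead, 0% = like control); rates were 20 g/ha or less, and 5 g/ha or less in the comparative test.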
# Setaria viridis (SETVI) = test: as above; settings: Setaria viridis, 504 h; for pest or weed control at 20 g/ha: read-out: Post-emergence action against SETVI; for pest or weed control at 1.25 g/ha: dosage 1.25 g/ha; for pest or weed control at 1.25 g/ha / pest or weed control at 5 g/ha: read-out: Post-emergence action against SETVI in %; for pest or weed control at 5 g/ha: dosage 5 g/ha
# Outline: as §1
# [2] = system: Matricaria inodora (MATIN); test: as above; settings: Tripleurospermum inodorum, 504 h, read-out: Post-emergence action against MATIN in %; for pest or weed control at 1.25 g/ha: dosage 1.25 g/ha; for pest or weed control at 20 g/ha: dosage 20 g/ha
# Outline: as §1
# [3] = system: Alopecurus myosuroides (ALOMY); test: as above; settings: Alopecurus myosuroides, 504 h, rated visually after about 3 weeks vs untreated controls, 100% = plants have died; for pest or weed control at 5 g/ha: read-out: Post-emergence action at 5 g/ha against ALOMY in %; for pest or weed control at 20 g/ha: read-out: Post-emergence action at 20 g/ha against ALOMY in %
# Outline: as §1
# [4] = system: Triticum aestivum (TRZAS); test: Post-emergence crop plant compatibility, greenhouse pot test; settings: 1.25 g/ha, vs untreated controls
# Outline: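 Values are visual % damage versus untreated controls (100% = plants died) about 3 weeks after treatment. Plants in sandy loam were sprayed at the one-leaf stage, 2–3 weeks after sowing, with aqueous WP/EC preparations plus 0.5% additive at 600 l/ha; a/b/c mark different dose levels.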
# [5] = system: Amaranthus retroflexus (AMARE); test: Post-emergence herbicidal action, greenhouse pot test; settings: Amaranthus retroflexus, 504 h, rated visually after about 3 weeks vs untreated controls, 100% = plants have died; for pest or weed control at 1.25 g/ha: read-out: Post-emergence action at 1.25 g/ha against AMARE in %; for pest or weed control at 5 g/ha: read-out: Post-emergence action at 5 g/ha against AMARE in %; for pest or weed control at 20 g/ha: read-out: Post-emergence action at 20 g/ha against AMARE in %
# Outline: (§2)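 Activity was scored by eye about 3 weeks after treatment against untreated plants, where 100% means dead plants and 0% means no difference. Plants at the one-leaf stage received a foliar spray of WP or EC formulations in water plus 0.5% additive (600 l/ha, up to 20 g/ha). Plants were grown in sandy loam pots in a greenhouse for 2–3 weeks before spraying.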
# Veronica persica (VERPE) = test: as above; settings: Veronica persica, 504 h, read-out: Post-emergence action against VERPE
# Outline: as §2
# [6] = system: Pharbitis purpurea (PHBPU); test: as above; settings: Ipomoea purpurea, 504 h, read-out: Post-emergence action against PHBPU in %; for pest or weed control at 1.25 g/ha: dosage 1.25 g/ha; for pest or weed control at 5 g/ha: dosage 5 g/ha; for pest or weed control at 20 g/ha: dosage 20 g/ha
# Outline: as §2
# Lolium rigidum (LOLRI) = test: as above; settings: Lolium rigidum, 504 h, dosage 20 g/ha, read-out: Post-emergence action against LOLRI in %
# Outline: as §2
# [7] = system: Abutilon theophrasti (ABUTH); test: as above; settings: Abutilon theophrasti, 504 h, rated visually after about 3 weeks vs untreated controls, 100% = plants have died; for pest or weed control at 1.25 g/ha: read-out: Post-emergence action at 1.25 g/ha against ABUTH in %; for pest or weed control at 5 g/ha: read-out: Post-emergence action at 5 g/ha against ABUTH in %; for pest or weed control at 20 g/ha: read-out: Post-emergence action at 20 g/ha against ABUTH in %
# Outline: as §2
# [8] = system: Polygonum convolvulus (POLCO); test: as above; settings: Fallopia convolvulus, 504 h, read-out: Post-emergence action against POLCO in %
# Outline: as §2
# Avena fatua (AVEFA) = test: as above; settings: Avena fatua, 504 h, 20 g/ha, rated visually after about 3 weeks vs untreated controls, 100% = plants have died, read-out: Post-emergence action at 20 g/ha against AVEFA in %
# Outline: as §2
# Viola tricolor (VIOTR) = test: as above; settings: Viola tricolor, 504 h, read-out: Post-emergence action against VIOTR
# Outline: as §2
Post-emergence action against ORYSA (crop plant compatibility) (Oryza sativa (ORYSA)),Post-emergence action against TRZAS (crop plant compatibility) [4],Structure (SMILES),pest or weed control at 5 g/ha [1],pest or weed control at 20 g/ha [1],pest or weed control at 20 g/ha (Setaria viridis (SETVI)),pest or weed control at 1.25 g/ha (Setaria viridis (SETVI)),pest or weed control at 5 g/ha (Setaria viridis (SETVI)),pest or weed control at 1.25 g/ha [2],pest or weed control at 20 g/ha [2],pest or weed control at 5 g/ha [3],pest or weed control at 20 g/ha [3],pest or weed control at 1.25 g/ha [5],pest or weed control at 5 g/ha [5],pest or weed control at 20 g/ha [5],pest or weed control at 5 g/ha (Veronica persica (VERPE)),pest or weed control at 20 g/ha (Veronica persica (VERPE)),pest or weed control at 1.25 g/ha [6],pest or weed control at 5 g/ha [6],pest or weed control at 20 g/ha [6],pest or weed control at 20 g/ha (Lolium rigidum (LOLRI)),other results
20%,0%,"Cn1c(C(F)(F)F)cc(=O)n(-c2cc(Oc3ccccc3OCC(=O)OCC3CCCO3)c(Cl)cc2F)c1=O (centres unmarked) [I.7-71, Tetrahydrofuran-2-ylmethyl (2-{2-chloro-4-fluoro-5-[3-methyl-2,6-dioxo-4-(trifluoromethyl)-3,6-dihydropyrimidin-1(2H)-yl]phenoxy}phenoxy)acetate]",100%,100%,100%,100%,100%,80%,100%,80%,80%,100%,100%,100%,100%,100%,100%,100%,100%,80%,"Post-emergence action at 1.25 g/ha against ECHCG in % ([1]; 1.25 g/ha, rated visually after about 3 weeks vs untreated controls, 100% = plants have died): 100%; pest or weed control at 1.25 g/ha (Veronica persica (VERPE); 1.25 g/ha): 100%; pest or weed control at 1.25 g/ha [7]: 100%; pest or weed control at 5 g/ha [7]: 100%; pest or weed control at 20 g/ha [7]: 100%; pest or weed control at 5 g/ha ([8]; dosage 5 g/ha): 100%; pest or weed control at 20 g/ha ([8]; dosage 20 g/ha): 100%; pest or weed control at 20 g/ha (Avena fatua (AVEFA)): 90%; pest or weed control at 1.25 g/ha (Viola tricolor (VIOTR)): 100%; pest or weed control at 5 g/ha (Viola tricolor (VIOTR)): 100%; pest or weed control at 20 g/ha (Viola tricolor (VIOTR)): 100%"
0%,20%,"Cn1c(C(F)(F)F)cc(=O)n(-c2cc(Oc3ccccc3OCC(=O)OCC[N+](=O)[O-])c(Cl)cc2F)c1=O [I.7-183, 2-Nitroethyl (2-{2-chloro-4-fluoro-5-[3-methyl-2,6-dioxo-4-(trifluoromethyl)-3,6-dihydropyrimidin-1(2H)-yl]phenoxy}phenoxy)acetate]",100%,100%,100%,100%,100%,80%,100%,80%,100%,100%,100%,100%,100%,100%,80%,100%,100%,80%,pest or weed control at 5 g/ha ([2]; dosage 5 g/ha): 100%; pest or weed control at 1.25 g/ha [7]: 100%; pest or weed control at 5 g/ha [7]: 100%; pest or weed control at 20 g/ha [7]: 100%; pest or weed control at 20 g/ha (Avena fatua (AVEFA)): 90%; pest or weed control at 1.25 g/ha (Viola tricolor (VIOTR)): 100%; pest or weed control at 5 g/ha (Viola tricolor (VIOTR)): 100%; pest or weed control at 20 g/ha (Viola tricolor (VIOTR)): 100%
